Laboratory results from US20120245099A1, “APOPTOSIS INDUCER” (NIHON UNIVERSITY, priority 2009, published 2012).

Tests used:
[1] = system: CRL cells (human melanoma cells); test: Recombinant E3 protein added to cells, LDH activity in culture supernatant (Example 11); assay type: cell-based; details: CRL cells (adherent), 1 ng/ml or 5 ng/ml, 24 hours after addition
Cos cells [2] = test: LDH activity in supernatant of Cos cells transformed with E3, E3 mutants or F IX EGF domain (Example 9); assay type: cell-based; details: APtag4 vector, medium replaced 4 hours after gene transfer, measured after further 24 hours
Description: cDNA for E3 (a part of Del-1) or an amino acid substitution mutant thereof was integrated into an AP expression vector (APtag4) and then introduced into cultured Cos cells. Likewise, cDNA for the EGF domain of blood coagulation factor IX (F IX; cDNA: SEQ ID NO: 24, amino acid sequence: SEQ ID NO: 25) was also integrated into APtag4 and then introduced into cultured Cos cells. As a control, an AP expression vector free from the above cDNAs for E3 and so on was used. It should be noted that the amino acid substitution mutants of E3 used for the above purpose were E3 D136E (cDNA: SEQ ID NO: 34, amino acid sequence: SEQ ID NO: 35), E3 D136N (cDNA: SEQ ID NO: 36, amino acid sequence: SEQ ID NO: 37) and E3 Y141F (cDNA: SEQ ID NO: 38, amino acid sequence: SEQ ID NO: 39). […] At 4 hours after gene transfer, the medium in each case was replaced with fresh culture medium and, after further 24 hours, the supernatant was measured for LDH activity. A cell lysate was prepared for each case and measured for LacZ activity. […]

Cos cells [3] = test: Recombinant E3 protein added to cultured Cos cells, H33342 staining (Example 8); assay type: cell-based; details: recombinant protein from E. coli, 24 hours after addition
Protocol: To cultured Cos cells, a recombinant E3 protein produced from transformed E. coli was added. At 24 hours after addition, the cells were stained with H33342 and observed under a phase contrast microscope and a fluorescent microscope.

[4] = system: P5 cells (vascular endothelial cell line); test: Recombinant E3 protein added to cells, LDH activity in culture supernatant (Example 11); assay type: cell-based; details: P5 cells (adherent), 1 ng/ml or 5 ng/ml, 24 hours after addition
[5] = system: MEL cells (mouse leukemia cells); test: as above; assay type: cell-based; details: MEL cells (floating), 1 ng/ml or 5 ng/ml, 24 hours after addition
Cos cells [6] = test: Concentration dependence of recombinant E3 protein, LDH activity in culture supernatant (Example 10); assay type: cell-based; details: 24 hours after addition
Protocol: A recombinant E3 protein produced from transformed E. coli was added at different concentrations (0 to 2.0 ng/ml) to cultured Cos cells. At 24 hours after addition, the culture supernatants were each measured for LDH activity.

Cos cells [7] = test: LDH activity in supernatant of Cos cells transformed with cDNA for Del-1 or its parts (Example 7); assay type: cell-based; details: APtag4 vector, medium replaced 24 hours after gene transfer, measured after further one hour
Description: cDNA for full-length Del-1 (SEQ ID NO: 4) was integrated into an AP expression vector (APtag4) and then introduced into cultured Cos cells. Likewise, cDNA for a part of Del-1 was also integrated into APtag4 and then introduced into cultured Cos cells. As a control, an AP expression vector free from the above cDNA for full-length Del-1 or a part thereof was used. It should be noted that the members each used as a part of Del-1 were EGF-like domains in the full-length Del-1 protein, i.e., EGF1 (E1; cDNA: SEQ ID NO: 26, amino acid sequence: SEQ ID NO: 27), EGF2 (E2; cDNA: SEQ ID NO: 28, amino acid sequence: SEQ ID NO: 29) and EGF3 (E3; cDNA: SEQ ID NO: 6, amino acid sequence: SEQ ID NO: 7), a fusion protein between discoidin I-like domains, i.e., Discoidin1 and Discoidin2 (C1C2; cDNA: SEQ ID NO: 30, amino acid sequence: SEQ ID NO: 31), an amino acid substitution (D136E) mutant of the above full-length Del-1 (Del1m; cDNA: SEQ ID NO: 32, amino acid sequence: SEQ ID NO: 33), as well as an amino acid substitution (D136E) mutant of E3, i.e., E3 D136E (E3m; cDNA: SEQ ID NO: 34, amino acid sequence: SEQ ID NO: 35). […] At 24 hours after gene transfer, the medium in each case was replaced with fresh culture medium and, after further one hour, the supernatant was measured for LDH activity. A cell lysate was prepared for each case and measured for LacZ activity. […]

[8] = system: SCCKN cells (human oral squamous cell carcinoma-derived cell line); test: Tumor-transplanted model mice, intratumoral gene transfer, tumor size over time (Example 12); assay type: in vivo; details: nude mice with SCCKN tumors, 10 μg DNA, Day0 to Day7
Protocol: For measurement of tumor size, the long axis and short axis of each tumor were measured with a ruler and multiplied by each other. In the figure, the tumor size (vertical axis) is expressed as a relative value (mean±SD), assuming that the value obtained at the time of gene transfer is set to 1.
Using tumor-transplanted model mice, a peptide containing the EGF3 domain, which is a part of Del-1, was studied for its therapeutic effect on tumor. More specifically, this peptide was verified as to whether its combined use with the FasL (Fas ligand) protein, whose antitumor effect has already been established, would enhance the antitumor effect when compared to FasL alone. […]
Then, 5×10^6 SCCKN cells (human oral squamous cell carcinoma-derived cell line) were injected under the dorsal skin of nude mice at 5 weeks of age. The mice were then measured over time for their tumor size. […]
The tumor size after gene transfer was measured over time (for 7 days: Day0 to Day7), and the results obtained are shown in FIG. 12.

Molecule: E3: EGF3 EGF-like domain of Del-1, amino acids 123-157, SEQ ID NO: 7 (CEAEPCRNGGICTDLVANYSCECPGEFMGRNCQYK; listed as Mus musculus)
- cytotoxic activity (apoptosis induction), LDH activity [1]: showed cytotoxic activity
- LDH activity of supernatant, normalized by LacZ activity (Cos cells [2]): high LDH activity
- chromosome aggregation (H33342 nuclear staining) (Cos cells [3]): chromosomes were aggregated
- cytotoxic activity (apoptosis induction), LDH activity [4]: showed cytotoxic activity
- cytotoxic activity, LDH activity [5]: no cytotoxic activity
- E3 protein concentration effective for apoptosis induction (LDH activity) (Cos cells [6]; 0 to 2.0 ng/ml): ≥ 0.4 ng/mL
- E3 protein concentration above which the effect on apoptosis induction remained unchanged (Cos cells [6]): higher than 1 ng/ml

Molecule: E3m: amino acid substitution (D136E) mutant of E3, SEQ ID NO: 35 (CEAEPCRNGGICTELVANYSCECPGEFMGRNCQYK; listed as Mus musculus)
- increase in LDH activity of supernatant, normalized by LacZ activity (Cos cells [7]): lost

Molecule: F IX: EGF domain of blood coagulation factor IX, SEQ ID NO: 25 (CESNPCLNGGICKDDISSYECWCQVGFEGRNCEL; listed as Mus musculus)
- LDH activity of supernatant, normalized by LacZ activity (Cos cells [2]): high LDH activity

B1: E3C1: fusion peptide between EGF3 domain and Discoidin1, amino acids 123 to 319 of mouse Del-1, SEQ ID NO: 42 (protein, listed as Mus musculus)
chain: CEAEPCRNGGICTDLVANYSCECPGEFMGRNCQYKCSGPLGIEGGIISNQQITASSTHRALFGLRKWYPYYARLNKKGLINAWTAAENDRWPWIQINLQRKMRVTGVITQGAKRIGSPEYIKSYKIAYSNDGKTWAMYKVKGTNEEMVFRGNVDNNTPYANSFTPPIKAQYVRLYPQICRRHCTLRMELLGCELSGC
- antitumor effect (tumor size) of E3C1 cDNA together with FasL cDNA compared with FasL alone [8]: higher antitumor effect
